Measurements from publication PMC4411898, “Impact of kinesin Eg5 inhibition by 3,4-dihydropyrimidin-2(1H)-one derivatives on various breast cancer cell features” (BMC Cancer, 2015).
Where two headings read alike, the source gives them in different places.

Key:
[1] = tested on: MCF-7 cells; assay: MTT cell viability assay, MCF-7; type: cell-based, human; details: for IC50: Homo sapiens, read-out: IC50 MCF-7
Description: (§1) Absorbance readings were measured by a spectrophotometer. Cell viability was normalized to control (vehicle only).

[2] = tested on: MDA-MB-231 cells; assay: MTT cell viability assay, MDA-MB-231; type: cell-based, human; details: for IC50: Homo sapiens, read-out: IC50 MDA-MB-231
Description: as §1

[3] = tested on: Fibroblasts (primary culture from healthy human dental pulp)
Description: MCF-7 cell line and primary culture of connective tissue cells were provided by the Laboratory of Morphology, University of Brasília (Brasília, BR). MDA-MB-231 cells were purchased from Rio de Janeiro Cell Bank (RJCB - Rio de Janeiro, BR). Cell line characterization and authentication was conducted by RJCB using short tandem repeat profiling. Primary culture cells were taken from healthy human dental pulp predominantly consisting of fibroblasts and were used as normal control cells. MCF-7 cells and fibroblasts were grown in complete DMEM and maintained at 37°C with 5% CO2. MDA-MB-231 cells were grown in Leibovitz L15 medium at 37°C without CO2. Culture media were supplemented with 10% fetal bovine serum and 25 μg/mL of gentamicin.
Cytotoxicity was determined using 3-(4,5-dimethylthiazol-2-yl)-2,5-diphenylterazolium bromide (MTT) according to the manufacturer’s instructions. Absorbance readings were measured by a spectrophotometer. Cell viability was normalized to control (vehicle only).

[4] = tested on: MCF-7 cells; assay: α-tubulin immunostaining, spindle formation; type: cell-based, human; details: for Monoastral Spindle (%) 24 h / Bipolar Spindle (%) 24 h / Bipolar Spindle (%) 48 h / Monoastral Spindle (%) 48 h: n = 300 dividing cells; for Monoastral Spindle (%) 24 h: monastrol 0.1 mM; for Bipolar Spindle (%) 24 h / Bipolar Spindle (%) 48 h / Monoastral Spindle (%) 48 h: concentrations as E14; for Bipolar Spindle (%) 48 h / Monoastral Spindle (%) 48 h: MCF-7, 48 h
Description: Aliquots of 7 × 10^4 MCF-7 cells were seeded onto 12 mm round glass coverslips placed in the base of each well of a 24-well plate. After adhesion, cells were treated for 24 and 48 h with the pre-selected compounds at their maximum non-cytotoxic concentrations to normal cells or incubated with culture medium only for the same duration (negative control). Cells were washed with PBS, fixed with 3.7% formaldehyde, permeabilized with 0.1% Triton X-100 and blocked in PBS supplemented with 1% skimmed milk, 2.5% bovine serum albumin (BSA) and 8% fetal bovine serum (FBS) at room temperature. Cells were incubated overnight with mouse anti-α-tubulin antibody (1:500) at 4°C, followed by incubation with a secondary antibody: Alexa Fluor 488 rabbit anti-mouse IgG (1:400), for 1 hour at 37°C. Nuclei were stained with 300 nM DAPI. The coverslips were mounted with ProLong Gold Antifade and specimens observed under a laser scanning confocal microscope.
Table S1. Quantification of monopolar spindles occurred as a result of treatment with DHPM derivatives. MCF-7 control cells or cells treated for 24 or 48 h with 4m (1 mM), […]
antibody. The percentage of dividing cells showing presence of monoastral and bipolar spinles formation determined (n = 300).
Experimental Group Monoastral Spindle (%) Bipolar Spindle (%)

[5] = tested on: MCF-7 cells; assay: Apoptosis and necrosis assay (Annexin-V/PI flow cytometry), MCF-7; type: cell-based, human; details: 72 h; 4m 1.0 mM, 4bt 0.8 mM, 4p 0.4 mM, 4bc 1.0 mM, 4x 0.8 mM
Description: (§2) For proliferation assays, cells were treated with IC50 concentrations of each compound. Adherent and floating cells were harvested at the same tube and pelleted by centrifugation at 300 g for 5 minutes and stained. Data acquisition of these two fractions put together was performed on a FACSCalibur flow cytometer using CellQuest software and analysed using the FloJo Software. Untreated control cells and DHPMs-treated for 72 h cell samples were stained with Annexin-V-FITC or Annexin-V-Alexa Fluor® 680 and propidium iodide according to the manufacturer’s instructions.

[6] = tested on: MDA-MB-231 cells; assay: Apoptosis and necrosis assay (Annexin-V/PI flow cytometry), MDA-MB-231; type: cell-based, human; details: 72 h; 4m 1.0 mM, 4bt 0.8 mM, 4p 0.4 mM, 4bc 1.0 mM, 4x 0.8 mM
Description: as §2

[7] = tested on: MCF-7 cells; assay: CD44+/CD24- expression analysis, MCF-7; type: cell-based, human; details: 24 h; for CD44-/CD24- subpopulation, MCF-7 (mean ± SEM): 4m 1.0 mM, 4bt 0.8 mM, 4p 0.4 mM, 4bc 1.0 mM, 4x 0.8 mM, monastrol 1.0 mM; for CD44+/CD24+ subpopulation, MCF-7 (mean ± SEM) / CD44-/CD24+ subpopulation, MCF-7 (mean ± SEM) / CD44+/CD24- subpopulation, MCF-7 (mean ± SEM): concentrations as E28; for CD44+/CD24- subpopulation, MCF-7 (mean ± SEM): control 0.38 ± 0.18
Description: (§3) For proliferation assays, cells were treated with IC50 concentrations of each compound. Adherent and floating cells were harvested at the same tube and pelleted by centrifugation at 300 g for 5 minutes and stained. Data acquisition of these two fractions put together was performed on a FACSCalibur flow cytometer using CellQuest software and analysed using the FloJo Software. Expression level of CD44 and CD24 in treated and control MCF-7 or MDA-MB-231 cells was measured after 24 h of treatment.

[8] = tested on: MDA-MB-231 cells; assay: CD44+/CD24- expression analysis, MDA-MB-231; type: cell-based, human; details: 24 h; for CD44-/CD24- subpopulation, MDA-MB-231 (mean ± SEM): 4m 1.0 mM, 4bt 0.8 mM, 4p 0.4 mM, 4bc 1.0 mM, 4x 0.8 mM, monastrol 1.0 mM; for CD44+/CD24+ subpopulation, MDA-MB-231 (mean ± SEM): control 1.507 ± 0.47
Description: as §3

[9] = tested on: MCF-7 cells; assay: Cell cycle analysis (PI), MCF-7; type: cell-based, human; details: 4m 1 mM, 4bt 0.8 mM, 4p 0.4 mM, 4bc 1.0 mM, 4x 0.8 mM
Description: For proliferation assays, cells were treated with IC50 concentrations of each compound. Adherent and floating cells were harvested at the same tube and pelleted by centrifugation at 300 g for 5 minutes and stained. Data acquisition of these two fractions put together was performed on a FACSCalibur flow cytometer using CellQuest software and analysed using the FloJo Software. Control and DHPM-treated cells were harvested at 24, 48 and 72 h, resuspended in ice-cold PBS and fixed with 70% ethanol on ice. Cells were then washed with PBS, harvested and incubated with propidium iodide solution (0.1% Triton X-100, 10 μg/mL propidium iodide, 100 μg/mL DNase free RNase) for 10 min at 37°C. For analysis of cell populations in each cell cycle phase, the sub-G1 picks were excluded and the plots were generated by cell cycle platform data analysis by the FlowJo Software.

[10] = tested on: MCF-7 cells; assay: Morphological alterations under inverted light microscope, MCF-7; type: cell-based, human; details: 72 h, maximum non-cytotoxic concentration to normal cells
Description: Figure 2 DHPM derivatives cause severe morphological alterations on breast cancer cells. MCF-7 and MDA-MB-231 cells were treated with the maximum non-cytotoxic concentration to normal cells for 72 h and morphological alterations analyzed under an inverted light microscope. Cells with elongated morphology, adherent to the surface and normal size are shown by arrows. Cells with size reduction, absence of focal adhesion points, rounded morphology and detached from the surface where they had been seeded are shown by arrowheads.

[11] = tested on: HUVEC cells; assay: HUVEC tube formation assay; type: cell-based, human; details: 11 h; 30 μM, IC50 or 300 μM, mainly 300 μM
Description: The anti-angiogenic potential of DHPMs was tested using an in vitro Angiogenesis Assay Kit according to the manufacturer’s instructions. […] These plates were incubated for 11 hours at 37°C, in 5% CO2. Wells were subsequently photographed using an inverted light microscope at 20x magnification and tube formation analyzed. Seven fields per group of 3 independent experiments were quantified by pattern recognition according to manufacturer’s instructions.

[12] = all concentrations tested 100 μM – 1.00 mM, 72 h
[13] = MCF-7, 24 h, 4m 1.0 mM, 4bt 0.8 mM, 4p 0.4 mM, 4bc 1.0 mM, 4x 0.8 mM

Structure (SMILES) | Monoastral Spindle (%) 24 h [4, 13] | Bipolar Spindle (%) 24 h ([4]; MCF-7, 24 h) | Bipolar Spindle (%) 48 h [4] | Monoastral Spindle (%) 48 h [4] | CD44-/CD24- subpopulation, MCF-7 (mean ± SEM) [7] | CD44+/CD24+ subpopulation, MCF-7 (mean ± SEM) [7] | CD44-/CD24+ subpopulation, MCF-7 (mean ± SEM) [7] | CD44+/CD24- subpopulation, MCF-7 (mean ± SEM) [7] | CD44-/CD24- subpopulation, MDA-MB-231 (mean ± SEM) [8] | CD44-/CD24+ subpopulation, MDA-MB-231 (mean ± SEM) ([8]; concentrations as E32) | CD44+/CD24+ subpopulation, MDA-MB-231 (mean ± SEM) ([8]; concentrations as E32) | further results
CC1(C)CC(=O)C2=C(C1)NC(=S)NC2c1cccc(O)c1 (stereo not shown) [Compound 4bt, Dimethylenastron] | 99.35% | 0.65% | 20% | 80% | 3.09 ± 0.46% | 61.97 ± 19.91% | 34.92 ± 19.45% | 0.005 ± 0.005% | 0.01 ± 0.00% | 0.0 ± 0.0% | 52.14 ± 10.60% | IC50 ([1]; MCF7, 72 h): 127 µM; Effect on cell viability, MCF-7 [1, 12]: significant decrease in cell viability; IC50 ([2]; MDA-MB-231, 72 h): 17.9 µM; Effect on cell viability, MDA-MB-231 [2, 12]: significant decrease in cell viability; Maximum non-cytotoxic concentration to normal cells ([3]; fibroblasts, 72 h treatment, MTT): 0.8 mM; Mitotic spindle / microtubule organization (α-tubulin immunostaining) [4, 13]: caused monoastral spindle formation; Cell death by apoptosis, % of MCF-7 cell population [5]: 39%; Cell death by apoptosis, % of MDA-MB-231 cell population [6]: 83%; Cell cycle effect, MCF-7, 48 h [9]: decrease of cells in G2/M and an increase of cells in S phase; Morphological alterations, MCF-7 [10]: produced the same results; HUVEC tube formation (pattern recognition / morphology) [11]: more pronounced anti-angiogenic morphological aspect
CCOC(=O)C1=C(C)NC(=S)NC1c1cccc(O)c1 (stereo not shown) [Monastrol, reference compound] | 97.66% | 2.33% | 8% | 92% | 1.64 ± 0.43% | 29.53 ± 5.30% | 68.56 ± 5.93% | 0.2400 ± 0.20% | 0.00 ± 0.003% | 0.007 ± 0.003% | 15.56 ± 6.96% | IC50 ([1]; MCF7, 72 h treatment, MTT): 110 µM; IC50 ([2]; MDA-MB-231, 72 h treatment, MTT): 114 µM; Maximum non-cytotoxic concentration to normal cells ([3]; human, 72 h): 1.0 mM; CD44+/CD24- subpopulation, MDA-MB-231 (mean ± SEM) ([8]; concentrations as E32, untreated control 98.45 ± 0.47): 84.41 ± 6.97%
